Reference: patent US20250282799A1, “SUBSTITUTED PYRIDO[4,3-d]PYRIMIDINES AS KRAS MODULATORS” (Alterome Therapeutics, Inc., priority 2023, published 2025)

tested on: KRAS G12V dependent lung adenocarcinoma cell line, NCI-H441; assay: Cellular pERK (Thr202/Tyr204) FRET/HTRF assay; type: cell-based; conditions: Homo sapiens, NCI-H441, cellular pERK (Thr202/Tyr204) HTRF, NCI-H441 cells
Procedure, shortened: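 NCI-H441 cells (KRAS G12V) plated overnight at 37 °C, then exposed to compounds for 1 hr at 37 °C, 5% CO2; DMSO as negative control. Lysates read by Eu-cryptate/d2 sandwich FRET (665 nm) for ERK1/2 phosphorylated at Thr202/Tyr204; IC50 from curve fit.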

Q: How did the IC50 turn out when [2H]C([2H])(Oc1nc(N2CCOC[C@@H]3[C@@H](F)[C@@H]32)c2cc(F)c(-c3nc(N)cc(C)c3C(F)(F)F)c(F)c2n1)[C@@]12CCCN1C[C@H](F)C2 [Example 176, 6-(6,8-difluoro-4-((1R,7R,8R)-8-fluoro-5-oxa-2-azabicyclo[5.1.0]octan-2-yl)-2-(((2R,7aS)-2-fluorotetrahydro-1H-pyrrolizin-7a(5H)-yl)methoxy-d2)quinazolin-7-yl)-4-methyl-5-(trifluoromethyl)pyridin-2-amine] was run?
A: 500 to 10000 nM

Q: For [2H]C([2H])(F)Oc1c(F)cc(F)c2cc(N)cc(-c3ncc4c(N5CCCC[C@H]6[C@H](F)[C@H]65)nc(OC([2H])([2H])[C@@]56CCCN5C[C@H](F)C6)nc4c3F)c12 [Example 173, 6,8-difluoro-4-(8-fluoro-4-((1S,7R,8S)-8-fluoro-2-azabicyclo[5.1.0]octan-2-yl)-2-(((2R,7aS)-2-fluorotetrahydro-1H-pyrrolizin-7a(5H)-yl)methoxy-d2)pyrido[4,3-d]pyrimidin-7-yl)-5-(fluoromethoxy-d2)naphthalen-2-amine], which IC50 is on record?
A: < 50 nM

Q: For [2H]C([2H])([2H])Oc1c(F)c(F)c(F)c2cc(N)cc(-c3ncc4c(N5CCOC[C@H]6[C@H](F)[C@H]65)nc(OC[C@@]56CCCN5CC(=C)C6)nc4c3F)c12 [Example 125, 6,7,8-trifluoro-4-(8-fluoro-4-((1S,7S,8S)-8-fluoro-5-oxa-2-azabicyclo[5.1.0]octan-2-yl)-2-(((S)-2-methylenetetrahydro-1H-pyrrolizin-7a(5H)-yl)methoxy)pyrido[4,3-d]pyrimidin-7-yl)-5-(methoxy-d3)naphthalen-2-amine], which IC50 is on record?
A: < 50 nM

Q: Which IC50 does the source give for C#Cc1c(Cl)ccc2cc(N)cc(-c3ncc4c(N5CCOC[C@@H]6[C@@H](Cl)[C@@H]65)nc(OC[C@@H]5CCCN5C)nc4c3F)c12 [Example 326, 6-chloro-4-(4-((1R,7R,8R)-8-chloro-5-oxa-2-azabicyclo[5.1.0]octan-2-yl)-8-fluoro-2-(((S)-1-methylpyrrolidin-2-yl)methoxy)pyrido[4,3-d]pyrimidin-7-yl)-5-ethynylnaphthalen-2-amine] here?
A: 50 to 500 nM

Q: How did the IC50 turn out when C#Cc1c(F)ccc2cc(N)cc(-c3ncc4c(N5CCOC[C@H]6[C@H](F)[C@H]65)nc(OC[C@@]56CCCN5C[C@@H](C)C6)nc4c3F)c12 (single isomer, unassigned) [Example 209] was run?
A: < 50 nM

Q: For [2H]C([2H])(Oc1nc(N2CCOC[C@H]3[C@H](F)[C@H]32)c2cnc(-c3cc(N)c(F)c(C)c3C(F)(F)F)c(F)c2n1)[C@@]12CCCN1C[C@H](F)C2 [Example 167, 2-Fluoro-5-(8-fluoro-4-((1S,7S,8S)-8-fluoro-5-oxa-2-azabicyclo[5.1.0]octan-2-yl)-2-(((2R,7aS)-2-fluorotetrahydro-1H-pyrrolizin-7a(5H)-yl)methoxy-d2)pyrido[4,3-d]pyrimidin-7-yl)-3-methyl-4-(trifluoromethyl) aniline], which IC50 is on record?
A: < 50 nM

Q: With [2H]C([2H])(F)Oc1c(F)ccc2cc(N)cc(-c3ncc4c(N5CCOC[C@H]6[C@H](F)[C@H]65)nc(OC[C@]56CC7(CC7)CN5CCC65CC5)nc4c3F)c12 [Example 228, 4-(2-(((R)-dihydro-5′H-dispiro[cyclopropane-1,1′-pyrrolizine-6′,1″- cyclopropan]-7a′(7′H)-yl)methoxy)-8-fluoro-4-((1S,7S,8S)-8-fluoro-5-oxa-2-azabicyclo[5.1.0]octan-2-yl)pyrido[4,3-d]pyrimidin-7-yl)-6-fluoro-5-(fluoromethoxy-d2)naphthalen-2-amine] as the molecule, how does the IC50 read?
A: < 50 nM

Q: For C#Cc1c(F)ccc2cc(N)cc(-c3ncc4c(N5CCOC[C@H]6[C@H](F)[C@H]65)nc(OC[C@]56C[C@@H](F)CN5C[C@@H](CNC(C)=O)C6)nc4c3F)c12 [Example 257, N-(((2R,6R,7aS)-7a-(((7-(3-amino-8-ethynyl-7-fluoronaphthalen-1-yl)-8-fluoro-4-((1S,7S,8S)-8-fluoro-5-oxa-2-azabicyclo[5.1.0]octan-2-yl)pyrido[4,3-d]pyrimidin-2-yl)oxy)methyl)-6-fluorohexahydro-1H-pyrrolizin-2-yl)methyl)acetamide], which IC50 is on record?
A: 50 to 500 nM

Q: For [2H]C([2H])(Oc1nc(N2CCOC[C@H]3[C@H](F)[C@H]32)c2cnc(-c3cc(N)cc4cccc(C#C)c34)c(F)c2n1)[C@@]12CCCN1[C@H](C)[C@H](F)C2 [Example 338, 5-ethynyl-4-(8-fluoro-2-(((2R,3R,7aS)-2-fluoro-3-methyltetrahydro-1H-pyrrolizin-7a(5H)-yl)methoxy-d2)-4-((1S,7S,8S)-8-fluoro-5-oxa-2-azabicyclo[5.1.0]octan-2-yl)pyrido[4,3-d]pyrimidin-7-yl)naphthalen-2-amine], which IC50 is on record?
A: < 50 nM

Q: Which IC50 does the source give for [2H]C([2H])(Oc1nc(N2CCOC[C@H]3[C@H](F)[C@H]32)c2c(Cl)nc(-c3cc(N)cc4ccc(F)c(C#C)c34)c(F)c2n1)[C@@]12CCCN1C[C@H](F)C2 [Example 291, 4-(5-Chloro-8-fluoro-4-((1S,7S,8S)-8-fluoro-5-oxa-2-azabicyclo[5.1.0]octan-2-yl)-2-(((2R,7aS)-2-fluorotetrahydro-1H-pyrrolizin-7a(5H)-yl)methoxy-d2)pyrido[4,3-d]pyrimidin-7-yl)-5-ethynyl-6-fluoronaphthalen-2-amine] here?
A: < 50 nM

Q: For [2H]C([2H])(F)Oc1c(F)ccc2cccc(-c3ncc4c(N5CCCC[C@H]6[C@H](F)[C@H]65)nc(OC[C@]56C/C(=C/F)CN5CCC65CC5)nc4c3F)c12 [Example 408, (R,Z)-7a′-(((8-fluoro-7-(7-fluoro-8-(fluoromethoxy-d2)naphthalen-1-yl)-4-((1S,7R,8S)-8-fluoro-2-azabicyclo[5.1.0]octan-2-yl)pyrido[4,3-d]pyrimidin-2-yl)oxy)methyl)-6′-(fluoromethylene)hexahydrospiro [cyclopropane-1,1′-pyrrolizine]], which IC50 is on record?
A: < 50 nM

same assay, conditions: Homo sapiens, NCI-H441, cellular pERK HTRF, NCI-H441 (KRAS G12V) cells

Q: [2H]C([2H])(Oc1nc(N2CCOC[C@H]3[C@H](Cl)[C@H]32)c2cnc(-c3cc(O)cc4ccc(F)c(C#C)c34)c(F)c2n1)[C@@]12CCCN1[C@H](C)[C@H](F)C2 [Example 475, 4-(4-((1S,7S,8S)-8-chloro-5-oxa-2-azabicyclo[5.1.0]octan-2-yl)-8-fluoro-2-(((2R,3R,7aS)-2-fluoro-3-methyltetrahydro-1H-pyrrolizin-7a(5H)-yl)methoxy-d2)pyrido[4,3-d]pyrimidin-7-yl)-5-ethynyl-6-fluoronaphthalen-2-ol] was tested. Which IC50 did it give?
A: < 50 nM

Q: For C#Cc1c(F)ccc2cc(N)cc(-c3ncc4c(N5CCOCC6C(Cl)C65)nc(OC[C@@]56CCCN5CC(=C)C6)nc4c3C)c12 (stereo partly drawn) [Example 443, 4-(4-(8-chloro-5-oxa-2-azabicyclo[5.1.0]octan-2-yl)-8-methyl-2-(((S)-2-methylenetetrahydro-1H-pyrrolizin-7a(5H)-yl)methoxy)pyrido[4,3-d]pyrimidin-7-yl)-5-ethynyl-6-fluoronaphthalen-2-amine], which IC50 is on record?
A: < 50 nM

Q: For C#Cc1c(F)ccc2cc(O)cc(-c3ncc4c(N5CCOC[C@H]6[C@H](F)[C@H]65)nc(OC[C@]56C/C(=C/F)CN5CCC65CC5)nc4c3C)c12 [Example 449, 5-ethynyl-6-fluoro-4-(4-((1S,7S,8S)-8-fluoro-5-oxa-2-azabicyclo[5.1.0]octan-2-yl)-2-(((R,Z)-6′-(fluoromethylene)tetrahydrospiro[cyclopropane-1,1′-pyrrolizin]-7a′(5′H)-yl)methoxy)-8-methylpyrido[4,3-d]pyrimidin-7-yl)naphthalen-2-ol], which IC50 is on record?
A: < 50 nM

Q: [2H]C([2H])(Oc1nc(N2CCCC[C@H]3[C@H](F)[C@H]32)c2cnc(-c3cc(O)cc4ccc(F)c(C#C)c34)c(C)c2n1)[C@@]12CCCN1C[C@H](F)C2 [Example 463, 5-Ethynyl-6-fluoro-4-(4-((1S,7R,8S)-8-fluoro-2-azabicyclo[5.1.0]octan-2-yl)-2-(((2R,7aS)-2-fluorotetrahydro-1H-pyrrolizin-7a(5H)-yl)methoxy-d2)-8-methylpyrido[4,3-d]pyrimidin-7-yl)naphthalen-2-ol] was tested. Which IC50 did it give?
A: < 50 nM

same assay, conditions: Homo sapiens, NCI-H441, pERK HTRF, NCI-H441 cells (KRAS G12V)

Q: With [2H]C([2H])(Oc1nc(N2CCOC[C@H]3[C@@H](F)[C@H]32)c2cnc(-c3cc(N)cc4cc(F)c(F)c(C#C)c34)c(F)c2n1)[C@@]12CCCN1C[C@H](F)C2 [Example 30, 5-Ethynyl-6,7-difluoro-4-(8-fluoro-4-((1S,7S,8R)-8-fluoro-5-oxa-2-azabicyclo[5.1.0]octan-2-yl)-2-(((2R,7aS)-2-fluorotetrahydro-1H-pyrrolizin-7a(5H)-yl)methoxy-d2)pyrido[4,3-d]pyrimidin-7-yl)naphthalen-2-amine] as the molecule, how does the IC50 read?
A: < 50 nM

same assay, conditions: cellular pERK HTRF, NCI-H441 (KRAS G12V) cells

Q: [2H]C([2H])(Oc1nc(N2CCOC[C@H]3[C@H](F)[C@H]32)c2cc(C#N)c(-c3ccc(F)c4sc(N)c(C#N)c34)c(C)c2n1)[C@@]12CCCN1C[C@H](F)C2 (atropisomer, axis not shown; (aS)) [Example 440, (R)-7-(2-amino-3-cyano-7-fluorobenzo[b]thiophen-4-yl)-4-((1S,7S,8S)-8-fluoro-5-oxa-2-azabicyclo[5.1.0]octan-2-yl)-2-(((2R,7aS)-2-fluorotetrahydro-1H-pyrrolizin-7a(5H)-yl)methoxy-d2)-8-methylquinazoline-6-carbonitrile] was tested. Which IC50 did it give?
A: < 50 nM

Q: For [2H]C([2H])(Oc1nc(N2CCOC[C@H]3[C@H](F)[C@H]32)c2cc(F)c(-c3cc(O)cc4ccc(F)c(C#C)c34)c(F)c2n1)[C@@]12CCCN1C[C@H](F)C2 (atropisomer, axis not shown; (aS)) [Example 454, 4-((S)-6,8-difluoro-4-((1S,7S,8S)-8-fluoro-5-oxa-2-azabicyclo[5.1.0]octan-2-yl)-2-(((2R,7aS)-2-fluorotetrahydro-1H-pyrrolizin-7a(5H)-yl)methoxy-d2)quinazolin-7-yl)-5-ethynyl-6-fluoronaphthalen-2-ol], which IC50 is on record?
A: 500 to 10000 nM
